Experimental data: paper PMC12565300, “Novel Cyclic Tetrapeptides as Neuraminidase Inhibitors from a Sponge-Associated Penicillium sp. SCSIO41035” (Marine Drugs, 2025)
Where two headings read alike, the source gives them in different places.

Key:
neuraminidase = details: 100 µg/mL; Mean ± SD (n not given); fluorogenic substrate, 37 °C, 30 min; ex 322 nm, em 450 nm; compound in DMSO
Experimental: 4.8. Neuraminidase Inhibitory Assay
The neuraminidase inhibitory activity was evaluated using a Neuraminidase In-hibitor Screening Kit (Beyotime Institute of Biotechnology, Shanghai, China). Assays were carried out in 96-well plates. For each well, 70 μL of neuraminidase assay buffer, 10 μL of neuraminidase solution, and 10 μL of test compound (dissolved in DMSO; final con-centration 100 μg/mL) were gently mixed. The reaction was initiated by adding 10 μL of the fluorogenic substrate to each well, and the plate was incubated at 37 °C for 30 min. Fluorescence was measured on an EnSpire microplate reader with excitation at 322 nm and emission at 450 nm. The fluorescence intensity of neuraminidase was measured at several concentrations to generate a standard curve relating fluorescence signal to enzyme concentration. The fluorescence corresponding to the highest neuraminidase concentration was set as 0% inhibition. Each sample well initially contained neuraminidase at this concentration, and the residual neuraminidase concentration after the reaction was determined from the measured fluorescence using the standard-curve equation. The inhibition percentages were then calculated.

[1] = system: two human carcinoma cell lines; details: ref [7], cited from earlier work
Text: Cyclic tetrapeptides are a class of natural products with significant potential in drug discovery, characterized by their unique structural features and diverse biological activities. Their cyclic structure confers stability and contributes to their potency, while their low molecular weight and favorable lipophilicity enhance drug-like properties. […] The presence of hydr ...

Compound: CC12NC(=O)C(C[C@]13C(=O)Nc1ccccc13)n1c2nc2ccccc2c1=O (stereo partly drawn) [Compound 8, alantrypinone]
- Inhibition Rate (neuraminidase inhibitory activity) (neuraminidase): 43.85 ± 1.41%

Compound: O=C1N[C@@]2(CO)c3nc4ccccc4c(=O)n3[C@@H]1C[C@@]21C(=O)Nc2ccccc21 [Compound 9, serantrypinone]
- Inhibition Rate (neuraminidase inhibitory activity) (neuraminidase): 51.67 ± 0.42%

Compound: CC(C)/C=C1\NC(=O)[C@H](CCC(N)=O)n2c1nc1ccccc1c2=O [Compound 10, aurantiomide C]
- Inhibition Rate (neuraminidase inhibitory activity) (neuraminidase): 67.54 ± 0.87%

Compound: Asperterrestide A
- IC50 ([1]; first of two human carcinoma cell lines, read-out: IC50 against human carcinoma cell line (first of two, unnamed)): 6.2 µM
- IC50 ([1]; second of two human carcinoma cell lines, read-out: IC50 against human carcinoma cell line (second of two, unnamed)): 6.4 µM

Compound: Penicopeptide B [Compound 1]
- Inhibition Rate (neuraminidase inhibitory activity) (neuraminidase): 52.90 ± 0.37%

Compound: Penicopeptide C [Compound 2]
- Inhibition Rate (neuraminidase inhibitory activity) (neuraminidase): 43.16 ± 1.23%

Compound: Penicopeptide D [Compound 3]
- Inhibition Rate (neuraminidase inhibitory activity) (neuraminidase): 58.67 ± 3.51%

Compound: Penicopeptide E [Compound 4]
- Inhibition Rate (neuraminidase inhibitory activity) (neuraminidase): 74.01 ± 1.32%

Compound: Penicopeptide F [Compound 5]
- Inhibition Rate (neuraminidase inhibitory activity) (neuraminidase): 85.40 ± 0.85%

Compound: Penicopeptide G [Compound 6]
- Inhibition Rate (neuraminidase inhibitory activity) (neuraminidase): 63.65 ± 0.67%

Compound: Penicopeptide H [Compound 7]
- Inhibition Rate (neuraminidase inhibitory activity) (neuraminidase): 57.78 ± 0.44%
